Experimental findings from article PMC10937556, “Phenolic phytochemistry, in vitro, in silico, in vivo, and mechanistic anti-inflammatory and antioxidant evaluations of Habenaria digitata” (Frontiers in Pharmacology, 2024) are described below.

Tested on in the first assay: not listed separately
Briefly: ABTS free radical scavenging assay.
Conditions: not given
The protocol:
The ABTS anti-radicals’ analysis was carried out according to [Shah et al. (2015)]. The ABTS solution was prepared by dissolving ABTS salt (192 mg) in distilled H2O, transferred to a flask (50 mL), and volume was adjusted. Thereafter, 1 mL of the preceding solution was added to 17 µL of K₂S₂O₈ (140 mM) and placed in the dark for 24 h s. The experiment’s ultimate ABTS dilution was achieved by mixing 1 mL of the reaction mixture with 50 mL of methanol. The ABTS solution (190 µL) was mixed with the sample solution (10 µL) and added to 96-well plates, which were then incubated at room temperature in dark for 2 h. Following incubation, the measurement of ABTS color intensity was conducted using a microplate reader at 734 nm. Positive control solutions were prepared at values of 1,000–62.5 µM. The percentage of ABTS scavenging was determined by using the following equation: % ABTS scavenging=Control−Sample/control×100.
As to `C=Cc1cc(OC)c(O)c(OC)c1` [Compound 5, 2,6-dimethoxy-4-vinylphenol], the “ABTS IC50” value is given as 30 µg/mL.

For `Cc1ccc(C(C)C)c(O)c1` [Compound 3, 2-isopropyl-5-methylphenol], the “ABTS IC50” value is 21 µg/mL.

For `C=Cc1ccc(O)cc1OC` [Compound 4, 3-methoxy-4-vinylphenol], the “ABTS IC50” value amounted to 42 µg/mL.

As for `CC1=C(O)C(=O)C(O)CO1` (stereo not drawn) [Compound 2, 3,5-dihydroxy-6-methyl-2,3-dihydro-4H-pyran-4-one], the “ABTS IC50” value is given as 03 µg/mL.

The assay is the same for the next values; noted with them: 62.5 µg/mL.
For the molecule `C=Cc1cc(OC)c(O)c(OC)c1` [Compound 5, 2,6-dimethoxy-4-vinylphenol], the ABTS % inhibition stood at 60.59 ± 0.30 %.

Molecule `Cc1ccc(C(C)C)c(O)c1` [Compound 3, 2-isopropyl-5-methylphenol] gave an ABTS % inhibition of 65.00 ± 0.30 %.

`C=Cc1ccc(O)cc1OC` [Compound 4, 3-methoxy-4-vinylphenol] displayed an ABTS % inhibition of 57.00 ± 1.15 %.

Molecule `CC1=C(O)C(=O)C(O)CO1` (stereo not drawn) [Compound 2, 3,5-dihydroxy-6-methyl-2,3-dihydro-4H-pyran-4-one] returned an ABTS % inhibition of 68.52 ± 0.38 %.

The assay is the same for the next values; noted with them: 125 µg/mL.
`C=Cc1cc(OC)c(O)c(OC)c1` [Compound 5, 2,6-dimethoxy-4-vinylphenol]: the ABTS % inhibition is given as 63.08 ± 1.04 %.

Molecule `Cc1ccc(C(C)C)c(O)c1` [Compound 3, 2-isopropyl-5-methylphenol] had an ABTS % inhibition of 72.54 ± 0.50 %.

`C=Cc1ccc(O)cc1OC` [Compound 4, 3-methoxy-4-vinylphenol] gave an ABTS % inhibition of 61.67 ± 0.89 %.

`CC1=C(O)C(=O)C(O)CO1` (stereo not drawn) [Compound 2, 3,5-dihydroxy-6-methyl-2,3-dihydro-4H-pyran-4-one] registered an ABTS % inhibition of 72.64 ± 0.16 %.

Staying with this assay, now noted: 250 µg/mL.
The molecule `C=Cc1cc(OC)c(O)c(OC)c1` [Compound 5, 2,6-dimethoxy-4-vinylphenol] came in with an ABTS % inhibition of 68.76 ± 0.61 %.

Turning to `Cc1ccc(C(C)C)c(O)c1` [Compound 3, 2-isopropyl-5-methylphenol], the ABTS % inhibition was found to be 76.69 ± 0.77 %.

The molecule `C=Cc1ccc(O)cc1OC` [Compound 4, 3-methoxy-4-vinylphenol] registered an ABTS % inhibition of 65.00 ± 0.58 %.

In turn, `CC1=C(O)C(=O)C(O)CO1` (stereo not drawn) [Compound 2, 3,5-dihydroxy-6-methyl-2,3-dihydro-4H-pyran-4-one] showed an ABTS % inhibition of 77.61 ± 1.70 %.

Still in this assay, the particulars now being: 500 µg/mL.
Regarding `C=Cc1cc(OC)c(O)c(OC)c1` [Compound 5, 2,6-dimethoxy-4-vinylphenol], the ABTS % inhibition turned out to be 74.31 ± 0.58 %.

Molecule `Cc1ccc(C(C)C)c(O)c1` [Compound 3, 2-isopropyl-5-methylphenol] registered an ABTS % inhibition of 83.67 ± 0.61 %.

Consider `C=Cc1ccc(O)cc1OC` [Compound 4, 3-methoxy-4-vinylphenol], for which the ABTS % inhibition was 72.03 ± 0.23 %.

Take `CC1=C(O)C(=O)C(O)CO1` (stereo not drawn) [Compound 2, 3,5-dihydroxy-6-methyl-2,3-dihydro-4H-pyran-4-one]: the ABTS % inhibition came to 81.94 ± 0.45 %.

Still in this assay, the particulars now being: 1,000 µg/mL.
Regarding `C=Cc1cc(OC)c(O)c(OC)c1` [Compound 5, 2,6-dimethoxy-4-vinylphenol], the ABTS % inhibition was determined as 79.49 ± 0.60 %.

Molecule `Cc1ccc(C(C)C)c(O)c1` [Compound 3, 2-isopropyl-5-methylphenol] displayed an ABTS % inhibition of 87.79 ± 0.63 %.

`C=Cc1ccc(O)cc1OC` [Compound 4, 3-methoxy-4-vinylphenol] registered an ABTS % inhibition of 75.33 ± 0.49 %.

Molecule `CC1=C(O)C(=O)C(O)CO1` (stereo not drawn) [Compound 2, 3,5-dihydroxy-6-methyl-2,3-dihydro-4H-pyran-4-one] yielded an ABTS % inhibition of 86.47 ± 0.22 %.

Tested on in a further assay: not listed separately
Briefly: DPPH free radical scavenging assay.
Conditions: not given
The protocol:
The DPPH (anti-radicals) investigation was carried out according to our earlier reported protocols. Initially, a methanolic DPPH solution was prepared with a concentration of 0.1%. Subsequently, 100 µL of this solution was mixed with an equal volume of the test samples (100 µL) in 96-well plates, following a 30-min incubation period at 25°C ± 3 °C in the dark. Solutions with concentrations ranging from […] were prepared. Five concentrations of 1,000, 500, 250, 125, and 62.5 µM of the Trolox methanolic solution ([…]) were formed. A color reduction in DPPH was observed after incubation; a microplate reader was used, and absorbance was measured at 540 nm ([Mahnashi et al., 2022a]; [Huneif et al., 2022]). The percentage of scavenging was determined by the formula: Scavenging effect %=control absorbance−sample absorbance/control absorbance×100.
Regarding `C=Cc1cc(OC)c(O)c(OC)c1` [Compound 5, 2,6-dimethoxy-4-vinylphenol], the “DPPH IC50” value came to 16 µg/mL.

On to `Cc1ccc(C(C)C)c(O)c1` [Compound 3, 2-isopropyl-5-methylphenol], for which the “DPPH IC50” value is on record as 17 µg/mL.

As to `C=Cc1ccc(O)cc1OC` [Compound 4, 3-methoxy-4-vinylphenol], the “DPPH IC50” value was found to be 40 µg/mL.

On to `CC1=C(O)C(=O)C(O)CO1` (stereo not drawn) [Compound 2, 3,5-dihydroxy-6-methyl-2,3-dihydro-4H-pyran-4-one], for which the “DPPH IC50” value worked out at 04 µg/mL.

Still in this assay, the particulars now being: 62.5 µg/mL.
On to `C=Cc1cc(OC)c(O)c(OC)c1` [Compound 5, 2,6-dimethoxy-4-vinylphenol], for which the DPPH % inhibition came out at 60.48 ± 0.23 %.

For `Cc1ccc(C(C)C)c(O)c1` [Compound 3, 2-isopropyl-5-methylphenol], the DPPH % inhibition turned out to be 62.98 ± 0.72 %.

In the case of `C=Cc1ccc(O)cc1OC` [Compound 4, 3-methoxy-4-vinylphenol], the DPPH % inhibition stood at 58.15 ± 0.22 %.

As for `CC1=C(O)C(=O)C(O)CO1` (stereo not drawn) [Compound 2, 3,5-dihydroxy-6-methyl-2,3-dihydro-4H-pyran-4-one], the DPPH % inhibition stood at 72.74 ± 0.61 %.

Staying with this assay, now noted: 125 µg/mL.
As for `C=Cc1cc(OC)c(O)c(OC)c1` [Compound 5, 2,6-dimethoxy-4-vinylphenol], the DPPH % inhibition amounted to 63.99 ± 0.19 %.

`Cc1ccc(C(C)C)c(O)c1` [Compound 3, 2-isopropyl-5-methylphenol]: the DPPH % inhibition is given as 67.90 ± 0.96 %.

Molecule `C=Cc1ccc(O)cc1OC` [Compound 4, 3-methoxy-4-vinylphenol] returned a DPPH % inhibition of 63.36 ± 0.71 %.

Molecule `CC1=C(O)C(=O)C(O)CO1` (stereo not drawn) [Compound 2, 3,5-dihydroxy-6-methyl-2,3-dihydro-4H-pyran-4-one] yielded a DPPH % inhibition of 76.54 ± 0.50 %.

Staying with this assay, now noted: 250 µg/mL.
In turn, `C=Cc1cc(OC)c(O)c(OC)c1` [Compound 5, 2,6-dimethoxy-4-vinylphenol] showed a DPPH % inhibition of 67.05 ± 0.13 %.

The molecule `Cc1ccc(C(C)C)c(O)c1` [Compound 3, 2-isopropyl-5-methylphenol] gave a DPPH % inhibition of 72.91 ± 0.88 %.

Turning to `C=Cc1ccc(O)cc1OC` [Compound 4, 3-methoxy-4-vinylphenol], the DPPH % inhibition came to 68.39 ± 0.35 %.

Molecule `CC1=C(O)C(=O)C(O)CO1` (stereo not drawn) [Compound 2, 3,5-dihydroxy-6-methyl-2,3-dihydro-4H-pyran-4-one] registered a DPPH % inhibition of 81.48 ± 0.64 %.

Staying with this assay, now noted: 500 µg/mL.
For the molecule `C=Cc1cc(OC)c(O)c(OC)c1` [Compound 5, 2,6-dimethoxy-4-vinylphenol], the DPPH % inhibition is 71.75 ± 0.21 %.

In the case of `Cc1ccc(C(C)C)c(O)c1` [Compound 3, 2-isopropyl-5-methylphenol], the DPPH % inhibition was found to be 77.08 ± 0.47 %.

Regarding `C=Cc1ccc(O)cc1OC` [Compound 4, 3-methoxy-4-vinylphenol], the DPPH % inhibition is listed as 73.42 ± 0.12 %.

`CC1=C(O)C(=O)C(O)CO1` (stereo not drawn) [Compound 2, 3,5-dihydroxy-6-methyl-2,3-dihydro-4H-pyran-4-one] gave a DPPH % inhibition of 86.86 ± 0.60 %.

The same assay, now with this note: 1,000 µg/mL.
The molecule `C=Cc1cc(OC)c(O)c(OC)c1` [Compound 5, 2,6-dimethoxy-4-vinylphenol] gave a DPPH % inhibition of 75.28 ± 0.42 %.

Consider `Cc1ccc(C(C)C)c(O)c1` [Compound 3, 2-isopropyl-5-methylphenol], for which the DPPH % inhibition came to 81.03 ± 0.35 %.

With `C=Cc1ccc(O)cc1OC` [Compound 4, 3-methoxy-4-vinylphenol], the DPPH % inhibition came out at 77.73 ± 0.03 %.

`CC1=C(O)C(=O)C(O)CO1` (stereo not drawn) [Compound 2, 3,5-dihydroxy-6-methyl-2,3-dihydro-4H-pyran-4-one] showed a DPPH % inhibition of 91.62 ± 0.74 %.

The target of the next assay is COX-1 (Ovis aries, UniProt P05979). Description: Cyclooxygenase COX-1 inhibition assay. It is filed as biochemical. Conditions: 62.50 μg/mL; read-out: % COX-1 inhibition.
Chain of COX-1 (P05979 25-600): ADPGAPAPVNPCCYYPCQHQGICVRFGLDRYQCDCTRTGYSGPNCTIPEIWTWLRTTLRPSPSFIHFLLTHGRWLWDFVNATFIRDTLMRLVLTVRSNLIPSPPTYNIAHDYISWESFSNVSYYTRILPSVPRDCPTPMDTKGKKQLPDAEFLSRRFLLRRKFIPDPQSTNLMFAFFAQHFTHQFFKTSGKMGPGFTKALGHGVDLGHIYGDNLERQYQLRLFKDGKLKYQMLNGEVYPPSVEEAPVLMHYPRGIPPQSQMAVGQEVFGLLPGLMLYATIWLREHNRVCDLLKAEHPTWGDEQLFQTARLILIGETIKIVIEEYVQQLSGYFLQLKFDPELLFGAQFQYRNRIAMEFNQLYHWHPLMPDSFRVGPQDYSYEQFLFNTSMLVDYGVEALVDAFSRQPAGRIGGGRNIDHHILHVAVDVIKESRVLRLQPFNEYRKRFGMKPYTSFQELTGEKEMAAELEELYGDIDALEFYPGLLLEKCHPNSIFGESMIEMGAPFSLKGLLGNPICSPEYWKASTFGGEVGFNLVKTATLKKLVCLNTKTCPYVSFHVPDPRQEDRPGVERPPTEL
By inhibition is commonly meant the percentage by which the read-out fell short of the control. Turning to `C=Cc1cc(OC)c(O)c(OC)c1` [Compound 5, 2,6-dimethoxy-4-vinylphenol], the inhibition at 62.5 µg/mL was 29.15 ± 0.22%.

Take `C=Cc1ccc(O)cc1OC` [Compound 4, 3-methoxy-4-vinylphenol]: the inhibition at 62.5 µg/mL was 33 ± 1.15%.

For `CC1=C(O)C(=O)C(O)CO1` (stereo not drawn) [Compound 2, 3,5-dihydroxy-6-methyl-2,3-dihydro-4H-pyran-4-one], the inhibition at 62.5 µg/mL is 40.8 ± 1.06%.

The assay is the same for the next values; noted with them: 125 µg/mL; read-out: % COX-1 inhibition.
On to `C=Cc1cc(OC)c(O)c(OC)c1` [Compound 5, 2,6-dimethoxy-4-vinylphenol], for which the inhibition at 125 µg/mL stood at 41.4 ± 0.71%.

`C=Cc1ccc(O)cc1OC` [Compound 4, 3-methoxy-4-vinylphenol]: the inhibition at 125 µg/mL worked out at 42.7 ± 0.89%.

For the molecule `CC1=C(O)C(=O)C(O)CO1` (stereo not drawn) [Compound 2, 3,5-dihydroxy-6-methyl-2,3-dihydro-4H-pyran-4-one], the inhibition at 125 µg/mL was 46.4 ± 0.62%.

The same assay, now with this note: 250 µg/mL.
Regarding `C=Cc1cc(OC)c(O)c(OC)c1` [Compound 5, 2,6-dimethoxy-4-vinylphenol], the inhibition at 250 µg/mL was determined as 47.39 ± 0.35%.

As for `C=Cc1ccc(O)cc1OC` [Compound 4, 3-methoxy-4-vinylphenol], testing at 250 µg/mL gave an inhibition of 49 ± 0.58%.

`CC1=C(O)C(=O)C(O)CO1` (stereo not drawn) [Compound 2, 3,5-dihydroxy-6-methyl-2,3-dihydro-4H-pyran-4-one] came in with an inhibition at 250 µg/mL of 54.6 ± 0.58%.

Still in this assay, the particulars now being: 500 µg/mL; read-out: % COX-1 inhibition.
Regarding `C=Cc1cc(OC)c(O)c(OC)c1` [Compound 5, 2,6-dimethoxy-4-vinylphenol], the inhibition at 500 µg/mL is 57.42 ± 0.12%.

With `C=Cc1ccc(O)cc1OC` [Compound 4, 3-methoxy-4-vinylphenol], the inhibition at 500 µg/mL was 63.03 ± 0.23%.

For `CC1=C(O)C(=O)C(O)CO1` (stereo not drawn) [Compound 2, 3,5-dihydroxy-6-methyl-2,3-dihydro-4H-pyran-4-one], the inhibition at 500 µg/mL was 65.29 ± 0.41%.

The same assay, now with this note: 1,000 µg/mL.
As for `C=Cc1cc(OC)c(O)c(OC)c1` [Compound 5, 2,6-dimethoxy-4-vinylphenol], the inhibition at 1000 µg/mL came to 67.73 ± 0.03%.

In turn, `C=Cc1ccc(O)cc1OC` [Compound 4, 3-methoxy-4-vinylphenol] showed an inhibition at 1000 µg/mL of 71.33 ± 0.49%.

`CC1=C(O)C(=O)C(O)CO1` (stereo not drawn) [Compound 2, 3,5-dihydroxy-6-methyl-2,3-dihydro-4H-pyran-4-one] came in with an inhibition at 1000 µg/mL of 71.37 ± 0.56%.

The same assay, now with this note: read-out: % COX-1 inhibition.
Consider `Cc1ccc(C(C)C)c(O)c1` [Compound 3, 2-isopropyl-5-methylphenol], for which the inhibition at 62.5 µg/mL amounted to 41.3 ± 1.01%, the inhibition at 125 µg/mL was 46.7 ± 0.78% and the inhibition at 500 µg/mL was determined as 57.9 ± 0.97%.
